Experimental data: article PMC3508077 (Bioorganic & medicinal chemistry, 2012)

How the values were obtained:
[1] = tested on: NAD(P)H:quinone reductase 1 (QR1); details: for Inducer class (monofunctional / bifunctional): from QR1 induction in Taoc1BP^rc1 and BP^rc1 mutants; for QR1 induction activity in the mutant cell lines (in words): Taoc1BP^rc1 and BP^rc1 mutant cell lines
[2] = tested on: NAD(P)H:quinone reductase 1 (QR1); details: cited from earlier work
[3] = target: T1, human aromatase (CYP19 enzyme) (Homo sapiens, UniProt P11511); details: cited from earlier work
T1 sequence (P11511 1-503): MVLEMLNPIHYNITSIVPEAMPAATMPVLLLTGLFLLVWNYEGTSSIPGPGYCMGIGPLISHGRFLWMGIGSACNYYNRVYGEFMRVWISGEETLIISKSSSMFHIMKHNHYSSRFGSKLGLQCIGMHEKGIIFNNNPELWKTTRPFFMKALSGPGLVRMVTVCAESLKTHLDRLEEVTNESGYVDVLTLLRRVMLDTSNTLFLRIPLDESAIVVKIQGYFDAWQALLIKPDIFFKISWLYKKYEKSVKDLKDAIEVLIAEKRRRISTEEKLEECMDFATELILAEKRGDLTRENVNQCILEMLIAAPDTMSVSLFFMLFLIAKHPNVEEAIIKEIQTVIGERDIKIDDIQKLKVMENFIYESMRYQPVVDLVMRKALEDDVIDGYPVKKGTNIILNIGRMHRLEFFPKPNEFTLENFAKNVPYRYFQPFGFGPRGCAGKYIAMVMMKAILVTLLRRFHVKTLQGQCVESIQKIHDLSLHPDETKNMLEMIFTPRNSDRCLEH

[4] = target: T1, human aromatase (CYP19 enzyme); details: read-out: Aromatase IC50
NF-κB [5] = details: cited from earlier work
[6] = tested on: NAD(P)H:quinone reductase 1 (QR1); assay: cells; details: Mus musculus, 48 h, read-out: CD (concentration that doubles the activity)
[7] = tested on: NAD(P)H:quinone reductase 1 (QR1); assay: QR1 induction assay in Hepa 1c1c7 murine hepatoma cells; assay type: cell-based; details: Hepa 1c1c7 cells
[8] = tested on: inducible nitric oxide synthase (iNOS)
NF-κB [9] = tested on: NF-κB

SMILES: O=c1cc(-c2ccc(Br)cc2)oc2ccccc12 [4′-Bromoflavone, reference compound]
- Inducer class (monofunctional / bifunctional) [1]: bifunctional

SMILES: c1ccc(-c2nsc(-c3ccccc3)n2)cc1 [Compound 2, 3,5-Diphenyl-1,2,4-thiadiazole]
- CD value compared with resveratrol (times lower) [2]: 10 times
- Activity as an aromatase inhibitor (in words) [3]: weak
- IC50 [4]: 32.7 ± 3.8 µM
- Activity as an inhibitor of NF-κB (in words) (NF-κB [5]): weak
- EC (2-fold QR1 activity) [6]: > 50 µM

SMILES: Fc1ccccc1-c1nsc(-c2ccccc2F)n1 [Compound 3, 3,5-bis(2-fluorophenyl)-1,2,4-thiadiazole]
- CD (concentration that doubles QR1 activity) [2]: 1.8 µM
- IR (QR1 induction ratio) [2]: 10.5
- EC (2-fold QR1 activity) [6]: 29.4 ± 1.3 µM

SMILES: Fc1ccccc1-c1nsc(-c2ccccc2)n1 [Compound 6b, 3-(2-Fluorophenyl)-5-phenyl-1,2,4-thiadiazole]
- EC (2-fold QR1 activity) [6]: > 50 µM

SMILES: FC(F)(F)c1ccccc1-c1nc(-c2ccccc2)cs1 [Compound 9a, 4-Phenyl-2-[2-(trifluoromethyl)phenyl]thiazole]
- QR1 induction activity (in words) [7]: inactive
- EC (2-fold QR1 activity) [6]: > 50 µM

SMILES: Clc1cccc(-c2nc(-c3ccccc3)cs2)c1Cl [Compound 9c, 2-(2,3-Dichlorophenyl)-4-phenylthiazole]
- QR1 induction activity in the mutant cell lines (in words) [1]: active

SMILES: Brc1cccc(-c2nc(-c3ccccc3)cs2)c1 [Compound 9d, 2-(3-Bromophenyl)-4-phenylthiazole]
- EC (2-fold QR1 activity) [6]: > 50 µM

SMILES: COc1cccc(-c2nc(-c3ccccc3)cs2)c1 [Compound 9e, 2-(3-Methoxyphenyl)-4-phenylthiazole]
- Inhibitory activity vs. iNOS (in words) [8]: weak
- QR1 induction activity in the mutant cell lines (in words) [1]: not active
- NF-κB inhibitory activity (in words) (NF-κB [9]): low micromolar
- EC (2-fold QR1 activity) [6]: > 50 µM

SMILES: Cc1c(Cl)cccc1-c1nc(-c2ccccc2)cs1 [Compound 9f, 2-(3-Chloro-2-methylphenyl)-4-phenylthiazole]
- EC (2-fold QR1 activity) [6]: > 50 µM

SMILES: Clc1ccc(Cl)c(-c2nc(-c3ccccc3)cs2)c1 [Compound 9g, 2-(2,5-Dichlorophenyl)-4-phenylthiazole]
- QR1 induction activity in the mutant cell lines (in words) [1]: active

SMILES: Cc1ccc(Cl)cc1-c1nc(-c2ccccc2)cs1 [Compound 9h, 2-(5-Chloro-2-methylphenyl)-4-phenylthiazole]
- Inducer class (monofunctional / bifunctional) [1]: monofunctional

SMILES: Clc1cccc(Cl)c1-c1nc(-c2ccccc2)cs1 [Compound 9i, 2-(2,6-Dichlorophenyl)-4-phenylthiazole]
- EC (2-fold QR1 activity) [6]: > 50 µM

SMILES: Cc1cc(Cl)ccc1-c1nc(-c2ccccc2)cs1 [Compound 9j, 2-(4-Chloro-2-methylphenyl)-4-phenylthiazole]
- Inducer class (monofunctional / bifunctional) [1]: monofunctional

SMILES: Cc1ccc(-c2nc(-c3ccccc3)cs2)c(Br)c1 [Compound 9l, 2-(2-Bromo-4-methylphenyl)-4-phenylthiazole]
- EC (2-fold QR1 activity) [6]: > 50 µM

SMILES: CCCCc1ccc(-c2nc(-c3ccccc3)cs2)cc1 [Compound 9m, 2-(4-n-Butylphenyl)-4-phenylthiazole]
- EC (2-fold QR1 activity) [6]: > 50 µM

SMILES: COc1cccc(-c2csc(-c3ccccc3)n2)c1 [Compound 9n, 4-(3-Methoxyphenyl)-2-phenylthiazole]
- Inhibitory activity vs. iNOS (in words) [8]: weak
- QR1 induction activity in the mutant cell lines (in words) [1]: not active
- NF-κB inhibitory activity (in words) (NF-κB [9]): weak

SMILES: COc1cccc(-c2csc(-c3cccc(OC)c3)n2)c1 [Compound 9o]
- QR1 induction activity in the mutant cell lines (in words) [1]: not active
- CD value compared with that of resveratrol (times better) [7]: 241 times
- NF-κB inhibitory activity (in words) (NF-κB [9]): weak

SMILES: COc1cccc(-c2csc(-c3cccc(Cl)c3C)n2)c1 [Compound 9p, 2-(3-Chloro-2-methylphenyl)-4-(3-methoxyphenyl)thiazole]
- EC (2-fold QR1 activity) [6]: > 50 µM

SMILES: COc1cccc(-c2csc(-c3cccc(Cl)c3Cl)n2)c1 [Compound 9q, 2-(2,3-Dichlorophenyl)-4-(3-methoxyphenyl)thiazole]
- QR1 induction activity in the mutant cell lines (in words) [1]: did not display activity
- EC (2-fold QR1 activity) [6]: > 50 µM

SMILES: COc1cccc(-c2csc(-c3cccc(F)c3F)n2)c1 [Compound 9r, 2-(2,3-Difluorophenyl)-4-(3-methoxyphenyl)thiazole]
- EC (2-fold QR1 activity) [6]: > 50 µM

SMILES: COc1cccc(-c2csc(-c3ccc(C)cc3Br)n2)c1 [Compound 9t, 2-(2-Bromo-4-methylphenyl)-4-(3-methoxyphenyl)thiazole]
- EC (2-fold QR1 activity) [6]: > 50 µM

SMILES: COc1cccc(-c2csc(-c3cc(Cl)ccc3C)n2)c1 [Compound 9u, 2-(5-Chloro-2-methylphenyl)-4-(3-methoxyphenyl)thiazole]
- Inducer class (monofunctional / bifunctional) [1]: monofunctional

SMILES: CCCCc1ccc(-c2nc(-c3cccc(OC)c3)cs2)cc1 [Compound 9v, 2-(4-n-Butylphenyl)-4-(3-methoxyphenyl)thiazole]
- EC (2-fold QR1 activity) [6]: > 50 µM

SMILES: COc1cccc(-c2csc(-c3cccc(Br)c3)n2)c1 [Compound 9w, 2-(3-Bromophenyl)-4-(3-methoxyphenyl)thiazole]
- EC (2-fold QR1 activity) [6]: > 50 µM

SMILES: COc1cccc(-c2csc(-c3cccc(OC)c3F)n2)c1 [Compound 13a, 2-(2-Fluoro-3-methoxyphenyl)-4-(3-methoxyphenyl)thiazole]
- QR1 induction activity (in words) [7]: inactive
- EC (2-fold QR1 activity) [6]: > 50 µM

SMILES: COc1cccc(-c2csc(-c3cc(OC)ccc3F)n2)c1 [Compound 13b, 2-(2-Fluoro-5-methoxyphenyl)-4-(3-methoxyphenyl)thiazole]
- QR1 induction activity (in words) [7]: inactive
- EC (2-fold QR1 activity) [6]: > 50 µM

SMILES: COc1cccc(-c2noc(-c3cccc(OC)c3)n2)c1 [Compound 15]
- EC (2-fold QR1 activity) [6]: > 50 µM

SMILES: COc1cccc(-c2nsc(-c3cccc(OC)c3)n2)c1 [Compound 16]
- EC (2-fold QR1 activity) [6]: > 50 µM
